Where “and” joins values, the source holds several entries; their conditions need not be identical. Identical values can stand only once.

The subject of series [1] is human lung cancer NCI-H460-Luc2 intracranial transplantation tumor. The note with it: 20 mg/kg i.p. QW×3; 11 days after grouping. On the procedure: BALB/c nude mice were inoculated intracranially with human lung cancer NCI-H460-Luc2 cells to establish human lung cancer intracranial transplantation tumor model. […] The relative tumor inhibition rate TGI (%) was calculated based on tumor biofluorescence value and the efficacy was evaluated.

Series [2] has as its system HuPrime pancreatic cancer PA3546 subcutaneous xenograft PDX tumor. The series is described as follows: PA3546 human pancreatic cancer subcutaneous PDX model. The note with it: 120 mg/kg i.p. QW×3; Day 25.
Description: BALB/c nude mice were subcutaneously inoculated with HuPrime® model PA3546 tumor blocks to establish human pancreatic cancer subcutaneous transplantation tumor model. […] Efficacy was evaluated according to the relative tumor inhibition rate TGI (%), and safety was evaluated according to the change in body weight and the death of animals.
In series [3] the target is P-gp (Homo sapiens, UniProt P08183). Kind of series: P-gp substrate evaluation, MDCKII-MDR1 penetration test. The note with it: dog; for Papp A→B at 2 h / Papp B→A at 2 h: MDCK-MDR1. The procedure:
(1) MDCKII-MDR1 cells were cultured in the cell culture bottle. The conditions of the incubator were 37° C., 5% of CO2, and 95% of the relative humidity. When the cell growth confluence was up to 70-90%, the cells were inoculated to the transwell.
The cell suspension was transferred to the upper compartment of the 96-well transwell, wherein each upper compartment contains 50 μL of the cell suspension. The final inoculum density was 5.45×10^5 cells/cm^2.
(1) The transwell culture plate of the MDCKII-MDRT cells was taken out from the incubator. The cell monolayer membrane was rinsed two times with the buffer solution and incubated at 37° C. for 30 min.
(2) The transport rate that the compound was transported from the top-end to the base-end was tested. 75 μL of the buffer solution contained the sample was added to each upper compartment (top-end), and 235 μL of the buffer solution was added to each lower compartment (base-end).
(3) The transport rate that the compound was transported from the base-end to the top-end was tested. 75 μL of the buffer solution was added to each upper compartment (top-end), and 235 μL of the buffer solution contained the sample was added to each lower compartment (base-end).
(6) The upper and lower transits were merged up and then incubated at 37° C. for 2 h.
(7) After the incubation was finished, 50 μL of the samples from each well of the upper compartment and the lower compartment of the transwell culture plate were respectively added to new sample tubes. 200 μL of the acetonitrile containing the internal standard (100 nM Alprazolam, 200 nM Labetalol, 200 nM caffeine and 2 μM Ketoprofen) was added to each sample tube. After the sample tubes were vortexed for 10 min, they were centrifuged at 3220 g for 30 min. 100 μL of the supernatant was taken and diluted with the same volume of the water to perform the LC-MS/MS analysis. Each sample was adopted to the three parallel incubation.
The peak area was calculated by the result of the ion chromatography. The permeability coefficient (Papp, unit: cm/s×10^−6) of the compound was calculated by the formula: […]
In the formula, “VA” refers to the volume of the solution on the acceptor (Ap→Bl was 0.235 mL, and Bl→Ap was 0.075 mL), “Area” refers to the area of the permeable membrane of the 96-well transwell (0.143 cm^2), “time” refers to the incubation time (in second), “[drug]acceptor” refers to the drug concentration of the acceptor after the incubation, and “[drug]initial, donor” refers to the initial concentration of the drug administration before the incubation.
The efflux ratio was calculated by the following formula: […]
In the formula, “Papp (B-A)” refers to the permeability coefficient from the base-end to the top-end, and the term “Papp (A-B)” refers to the permeability coefficient from the top-end to the base-end.
The recovery was calculated by the following formula: […]
In the formula, “VA” refers to the volume of the solution on the acceptor (mL), “VD” refers to the volume of the solution on the donor (mL), “[drug]acceptor” refers to the drug concentration of the acceptor after the incubation, “[drug]donor” refers to the drug concentration of the donor after the incubation, and the term “[drug]initial, donor” refers to the initial concentration of the drug administration before the incubation.

For series [4], the system named is mice. The following applies: prior literature WO2016210175A1, CN108024974A; cited from earlier work.
The subject of series [5] is human liver cancer HepG2 subcutaneous xenograft. Kind of series: Human liver cancer HepG2 subcutaneous xenograft model. The class given is in vivo, BALB/c nude mice. The text has this:
BALB/c nude mice were subcutaneously inoculated with human liver cancer HepG2 cells to establish human liver cancer subcutaneous transplantation tumor model.

Series [6] can be described thus: Plasma stability, mouse. The note with it: Mouse plasma; after 30 minutes. The class given is in vitro ADME. On the procedure:
(§1) The pH of the plasma was checked and recorded. Note: a.
(§2) The final concentration of solvent was 0.5%.
(§3) The assay is performed in duplicate.

The nature of series [7]: Plasma stability, monkey. The class given is in vitro ADME. The note with it: Monkey plasma; after 30 minutes. On the procedure:
as §1, §2, §3

A short description of series [8]: Plasma stability, human. Type of series: in vitro ADME. The note with it: Human plasma; after 30 minutes; 5 μM; 37° C. The procedure: as §1, §2, §3
Series [9] concerns human lung cancer NCI-H460 subcutaneous xenograft. Kind of series: Human lung cancer NCI-H460 subcutaneous xenograft model, compounds B and C. Type of series: in vivo, BALB/c nude mice. On the procedure: BALB/c nude mice were subcutaneously inoculated with human lung cancer NCI-H460 cells to establish human lung cancer subcutaneous transplantation tumor model. […] The positive drug Irinotecan 40 mg/kg group was administered by intraperitoneal injection once every 4 days for 7 times, and observed for 4 days.
(A xenograft is tissue or cells of one species grown in another, often human tumour cells in immunodeficient mice.)

Series [10] in a line: Plasma stability, dog. The following applies: Dog plasma; after 30 minutes. The procedure: (§4) The frozen plasma was immediately melted in a water bath of 37° C. The plasma was centrifuged at 3, 220 g for 10 minutes to remove the blood clots and the supernatant was collected into a new test tube. The pH of the plasma was checked and recorded. Note: a. Only plasma that has been melted no more than twice since arrival was used; b. Only plasma in the range of pH 7 to pH 8 was used.
(§5) 1 mM of working solutions of the test compound and the control compound mevinolin were prepared in DMSO. 1 mM of the working solution of the control compound solution in […] was prepared in acetonitrile. 4 μL of the working solution was added to 796 μL of pre-incubated plasma to achieve 5 μM of final concentration. The final concentration of solvent was 0.5%.
(§6) The aliquots of 50 μL of the standard addition plasma were added to new test tubes and incubated in the water bath of 37° C. at approximately 60 rpm for 2 hours. The assay is performed in duplicate. At the end of the two hour incubation, 300 μL of quenched solution at room temperature (acetonitrile containing internal standards (acetonitrile, 100 nM Alprazolam, 500 nM Labetalol and 2 μM ketoprofen)) was added to terminate the reaction. Samples at time 0 were prepared by adding 50 μL of standard addition plasma to the new test tubes with 300 μL of quenched solution at room temperature. The test tubes were mixed by vortex for 5 minutes. The samples in the plates were centrifuged at 3, 220×g for 30 minutes at 4° C. to precipitate the proteins. 100 μL of supernatant was transferred to a new plate. The supernatant was diluted with 100 μL of water, mixed well and analysed using LC-MS/MS.

Series [11] is described as follows: Plasma stability, rat. The note with it: Rat plasma; after 30 minutes. The procedure:
as §4, §5
as §6, with “The aliquots of 50 μL of the standard addition plasma were added to new test tubes and incubated in the water bath of 37° C. at approximately 60 rpm for 2 hours.” left out

[12] abbreviates: MDCK-MDR1, Recovery (%) AP-BL, verapamil 0 μM.
[13] abbreviates: MDCK-MDR1, Recovery (%) BL-AP, verapamil 0 μM.
Where [14] appears, read: MDCK-MDR1, with verapamil 100 μM (in donor and acceptor buffer), Recovery (%) AP-BL, verapamil 100 μM.
Setting [15] is: MDCK-MDR1, with verapamil 100 μM (in donor and acceptor buffer), Recovery (%) BL-AP, verapamil 100 μM.

Chain of P-gp (P08183 whole entry): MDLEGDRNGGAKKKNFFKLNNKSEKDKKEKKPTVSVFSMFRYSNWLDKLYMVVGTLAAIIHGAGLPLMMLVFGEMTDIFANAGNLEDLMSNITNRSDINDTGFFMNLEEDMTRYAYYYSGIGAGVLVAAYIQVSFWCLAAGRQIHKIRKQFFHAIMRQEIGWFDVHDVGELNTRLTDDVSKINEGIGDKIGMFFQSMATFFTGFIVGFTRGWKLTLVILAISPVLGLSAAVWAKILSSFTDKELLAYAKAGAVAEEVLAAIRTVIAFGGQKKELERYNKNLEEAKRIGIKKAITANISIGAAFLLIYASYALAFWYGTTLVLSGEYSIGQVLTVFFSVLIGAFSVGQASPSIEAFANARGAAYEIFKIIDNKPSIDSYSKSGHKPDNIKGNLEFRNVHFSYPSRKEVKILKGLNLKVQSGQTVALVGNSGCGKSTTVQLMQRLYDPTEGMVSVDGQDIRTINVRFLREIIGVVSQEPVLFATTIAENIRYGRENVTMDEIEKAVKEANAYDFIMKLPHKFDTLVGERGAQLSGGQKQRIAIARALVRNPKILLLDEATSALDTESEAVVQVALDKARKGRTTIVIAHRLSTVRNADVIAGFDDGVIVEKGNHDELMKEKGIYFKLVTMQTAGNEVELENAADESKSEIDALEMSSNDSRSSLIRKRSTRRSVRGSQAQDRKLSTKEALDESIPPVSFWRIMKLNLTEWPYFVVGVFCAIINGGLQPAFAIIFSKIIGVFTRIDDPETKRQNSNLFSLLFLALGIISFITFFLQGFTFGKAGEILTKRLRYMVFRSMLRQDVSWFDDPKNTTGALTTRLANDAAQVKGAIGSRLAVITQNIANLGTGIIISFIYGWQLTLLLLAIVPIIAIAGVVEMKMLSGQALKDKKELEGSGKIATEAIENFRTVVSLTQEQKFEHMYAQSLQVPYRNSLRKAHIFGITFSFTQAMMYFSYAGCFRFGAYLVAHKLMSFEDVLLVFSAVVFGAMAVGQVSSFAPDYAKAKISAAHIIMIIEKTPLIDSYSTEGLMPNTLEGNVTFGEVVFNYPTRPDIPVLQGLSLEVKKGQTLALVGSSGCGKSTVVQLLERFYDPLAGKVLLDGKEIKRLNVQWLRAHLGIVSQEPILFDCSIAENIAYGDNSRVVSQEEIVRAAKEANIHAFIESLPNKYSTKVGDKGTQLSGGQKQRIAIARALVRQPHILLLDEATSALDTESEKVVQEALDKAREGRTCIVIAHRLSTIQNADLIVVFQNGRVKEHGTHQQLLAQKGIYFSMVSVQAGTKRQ

On to `CC(=O)O[C@H]1C(=O)[C@@]2(C)[C@H]([C@H](OC(=O)c3ccccc3)[C@]3(O)C[C@H](OC(=O)[C@H](O)[C@@H](NC(=O)c4ccccc4)c4ccccc4)C(C)=C1C3(C)C)[C@]1(OC(C)=O)CO[C@@H]1C[C@@H]2O` [Paclitaxel, reference compound], for which, in series [1], the mean biofluorescence value is 4184.52 E+05 photon/second.

Turning to `Nc1ccn([C@@H]2O[C@H](CO)[C@@H](O)C2(F)F)c(=O)n1` [Gemcitabine, reference compound], the “relative tumor inhibition rate TGI (%)” value in series [2] is recorded as 45.31%.

For `COc1cc2nc(N3CCN(C(=O)c4ccco4)CC3)nc(N)c2cc1OC` [prazosin], the apparent permeability from apical to basolateral (Papp A→B) at 2 h in [3] worked out at 11 ×10⁻⁶ cm/s. Besides, in [3], the basolateral-to-apical permeability (Papp B→A) at 2 h stood at 31.8 ×10⁻⁶ cm/s. Also, the recovery at 2 h was 90.7% in series [3] (setting [12]), 78.5% in series [3] (setting [13]), 94.2% in series [3] (setting [14]) and 88.5% in [3] (setting [15]).

As to `C[C@H](OP(=O)(N1CC1)N1CC1)c1ccc([N+](=O)[O-])cc1` [TH2566], the “MTD Result” value in series [4] was 2 mg/kg.

In the case of `CNC(=O)c1cc(Oc2ccc(NC(=O)Nc3ccc(Cl)c(C(F)(F)F)c3)cc2)ccn1` [Sorafenib, reference compound], the cure rate in series [5] (30 mg/kg (Group 2)) came to 20%. For the same compound, the “relative tumor inhibition rate TGI (%)” value in series [5] (30 mg/kg, QD×21 Days, intragastric, Day 45) amounted to 48.11%.

In the case of `CC(C)[N+](C)(CCOC(=O)C1c2ccccc2Oc2ccccc21)C(C)C` [Propanthine, reference compound], the Remaining percentage in series [6] is 1.98%; in series [7], 54.38%; in series [8], 0.07% and 3.32%.

`Cc1ccc(NC(=O)c2ccc(CN3CCN(C)CC3)cc2)cc1Nc1nccc(-c2cccnc2)n1` [Imatinib] gave a Papp A→B at 2 h in [3] of 1.89 ×10⁻⁶ cm/s. The compound also had a Papp B→A at 2 h in series [3] of 30.5 ×10⁻⁶ cm/s. The recovery at 2 h stood at 79% in [3] (setting [12]), 63.4% in series [3] (setting [13]), 83% in series [3] (setting [14]) and 87.6% in series [3] (setting [15]).

In [3], `COCCc1ccc(OCC(O)CNC(C)C)cc1` (centres unmarked) [Metoprolol] showed a Papp A→B at 2 h of 27.6 ×10⁻⁶ cm/s and a Papp B→A at 2 h of 26.5 ×10⁻⁶ cm/s. This compound had a recovery at 2 h in series [3] (setting [12]) of 96.2%. Also, in [3] (setting [13]), the recovery at 2 h stood at 98.5%.

For `C[C@@H](OP(=O)(N1CC1)N1CC1)c1ccc([N+](=O)[O-])cc1` [TH2565], the “MTD Result” value in series [4] is 2 mg/kg.

Regarding `CCc1c2c(nc3ccc(OC(=O)N4CCC(N5CCCCC5)CC4)cc13)-c1cc3c(c(=O)n1C2)COC(=O)[C@]3(O)CC` [Irinotecan, reference compound], in [9] (40 mg/kg, Q4D×7, i.p., day 28), the “relative tumor inhibition rate TGI (%)” value stood at 79.03%. Further, the “drug toxicity (weight loss / death)” value in series [9] (at the tested dosage) is given as “a certain drug toxicity”.

On to `CC[C@H](C)C(=O)O[C@H]1C[C@@H](C)C=C2C=C[C@H](C)[C@H](CC[C@@H]3C[C@@H](O)CC(=O)O3)[C@H]21` [Lovastatin, reference compound], for which the Remaining percentage in [10] is 58.73%; in series [11], 0.21% and 0.19%.

Usually Papp A→B stands for how fast a substance crosses the layer from the apical side. The term Papp B→A denotes how fast a substance crosses the layer from the basolateral side.

These data come from patent US20230339991A1, “HYPOXIA-ACTIVATED DNA ALKYLATING AGENT AND MEDICAL USE THEREOF” (ASCENTAWITS PHARMACEUTICALS, LTD., priority 2020, published 2023).
